Results: paper PMC8086052 (Japanese Journal of Clinical Oncology, 2021)
“Also recorded” adds a separate entry of the source. Like-named read-outs stand apart in the source and are kept apart here.

Key:
[1] = test system: Japanese patients with advanced solid tumours; details: for Tolerability: 200 or 300 mg/day, Japanese patients with advanced solid tumours; for Patients with dose-limiting toxicity (DLT) in cycle 1: cohort 2, 300 mg/day (n = 6)
[2] = test system: platinum-sensitive recurrent ovarian cancer; details: cited from earlier work
[3] = Plasma pharmacokinetics of niraparib and M1, cycle 1 days 1 and 21; type: in vivo, human; details: for AUC(0-t) / Cmax: oral; for Cmax / Cmin: geometric mean (SD)
[4] = cited from earlier work
[5] = test system: newly diagnosed advanced ovarian cancer; details: regardless of presence or absence of HRd; cited from earlier work
[6] = cancer patients; cited from earlier work
[7] = test system: non-Japanese patients with advanced solid tumours; details: phase I studies in USA and Europe; cited from earlier work
[8] = test system: metastatic or locally advanced solid tumours
[9] = Niraparib 200 mg/day (n = 3), Any grade
[10] = Niraparib 200 mg/day (n = 3), Grade 3/4
[11] = Niraparib 300 mg/day (n = 6), Any grade
[12] = Niraparib 300 mg/day (n = 6), Grade 3/4
[13] = cohort 2, 300 mg/day, listed as niraparib
[14] = cohort 2, 300 mg/day, three patients

NC(=O)c1cccc2cn(-c3ccc([C@@H]4CCCNC4)cc3)nc12 [Niraparib, niraparib]
Time to recovery from grade 4 thrombocytopenia / platelet count decreased ([1]; 300 mg/day cohort): ~ 10 days | Patients with grade 4 thrombocytopenia or platelet count decreased ([1]; 300 mg/day cohort, day 14 of cycle 1 and day 8 of cycle 2): two patients | AEs of special interest (myelodysplastic syndrome, acute myeloid leukaemia, hypertensive crisis) ([1]; 200 and 300 mg/day): no AEs of special interest | Tolerability [1]: tolerable | Tolerability ([1]; listed as niraparib): generally safe and tolerable | Patients with events: ALT increased [1, 9]: 0 n (%) | Patients with events: AST increased [1, 9]: 0 n (%) | Patients with events: Anaemia [1, 9]: 0 n (%) | Patients with events: Any TEAE [1, 9]: 3 (100.0) n (%) | Patients with events: Blood ALP increased [1, 9]: 1 (33.3) n (%) | Patients with events: Blood creatinine increased [1, 9]: 1 (33.3) n (%) | Patients with events: Chest pain [1, 9]: 0 n (%) | Patients with events: Constipation [1, 9]: 1 (33.3) n (%) | Patients with events: Decreased appetite [1, 9]: 2 (66.7) n (%) | Patients with events: Diabetes mellitus [1, 9]: 0 n (%) | Patients with events: Diarrhoea [1, 9]: 0 n (%) | Patients with events: Fatigue [1, 9]: 2 (66.7) n (%) | Patients with events: Febrile neutropenia [1, 9]: 0 n (%) | Patients with events: GGT increased [1, 9]: 0 n (%) | Patients with events: Hypertension [1, 9]: 0 n (%) | Patients with events: Malaise [1, 9]: 1 (33.3) n (%) | Patients with events: Nausea [1, 9]: 1 (33.3) n (%) | Patients with events: Platelet count decreased [1, 9]: 1 (33.3) n (%) | Patients with events: Pyelonephritis [1, 9]: 0 n (%) | Patients with events: Thrombocytopenia [1, 9]: 0 n (%) | Patients with events: Vomiting [1, 9]: 2 (66.7) n (%) | Patients with events: White blood cell count decreased [1, 9]: 1 (33.3) n (%) | Patients with events: ALT increased [1, 10]: 0 n (%) | Patients with events: AST increased [1, 10]: 0 n (%) | Patients with events: Anaemia [1, 10]: 0 n (%) | Patients with events: Any TEAE [1, 10]: 1 (33.3) n (%) | Patients with events: Blood ALP increased [1, 10]: 1 (33.3) n (%) | Patients with events: Blood creatinine increased [1, 10]: 0 n (%) | Patients with events: Chest pain [1, 10]: 0 n (%) | Patients with events: Constipation [1, 10]: 0 n (%) | Patients with events: Decreased appetite [1, 10]: 0 n (%) | Patients with events: Diabetes mellitus [1, 10]: 0 n (%) | Patients with events: Diarrhoea [1, 10]: 0 n (%) | Patients with events: Fatigue [1, 10]: 0 n (%) | Patients with events: Febrile neutropenia [1, 10]: 0 n (%) | Patients with events: GGT increased [1, 10]: 0 n (%) | Patients with events: Hypertension [1, 10]: 0 n (%) | Patients with events: Malaise [1, 10]: 0 n (%) | Patients with events: Nausea [1, 10]: 0 n (%) | Patients with events: Platelet count decreased [1, 10]: 0 n (%) | Patients with events: Pyelonephritis [1, 10]: 0 n (%) | Patients with events: Thrombocytopenia [1, 10]: 0 n (%) | Patients with events: Vomiting [1, 10]: 0 n (%) | Patients with events: White blood cell count decreased [1, 10]: 1 (33.3) n (%) | Patients with events: ALT increased [1, 11]: 3 (50.0) n (%) | Patients with events: AST increased [1, 11]: 5 (83.3) n (%) | Patients with events: Anaemia [1, 11]: 3 (50.0) n (%) | Patients with events: Any TEAE [1, 11]: 6 (100.0) n (%) | Patients with events: Blood ALP increased [1, 11]: 4 (66.7) n (%) | Patients with events: Blood creatinine increased [1, 11]: 1 (16.7) n (%) | Patients with events: Chest pain [1, 11]: 2 (33.3) n (%) | Patients with events: Constipation [1, 11]: 2 (33.3) n (%) | Patients with events: Decreased appetite [1, 11]: 2 (33.3) n (%) | Patients with events: Diabetes mellitus [1, 11]: 1 (16.7) n (%) | Patients with events: Diarrhoea [1, 11]: 2 (33.3) n (%) | Patients with events: Fatigue [1, 11]: 1 (16.7) n (%) | Patients with events: Febrile neutropenia [1, 11]: 1 (16.7) n (%) | Patients with events: GGT increased [1, 11]: 3 (50.0) n (%) | Patients with events: Hypertension [1, 11]: 2 (33.3) n (%) | Patients with events: Malaise [1, 11]: 2 (33.3) n (%) | Patients with events: Nausea [1, 11]: 4 (66.7) n (%) | Patients with events: Platelet count decreased [1, 11]: 5 (83.3) n (%) | Patients with events: Pyelonephritis [1, 11]: 1 (16.7) n (%) | Patients with events: Thrombocytopenia [1, 11]: 1 (16.7) n (%) | Patients with events: Vomiting [1, 11]: 2 (33.3) n (%) | Patients with events: White blood cell count decreased [1, 11]: 1 (16.7) n (%) | Patients with events: ALT increased [1, 12]: 1 (16.7) n (%) | Patients with events: AST increased [1, 12]: 0 n (%) | Patients with events: Anaemia [1, 12]: 1 (16.7) n (%) | Patients with events: Any TEAE [1, 12]: 4 (66.7) n (%) | Patients with events: Blood ALP increased [1, 12]: 1 (16.7) n (%) | Patients with events: Blood creatinine increased [1, 12]: 0 n (%) | Patients with events: Chest pain [1, 12]: 0 n (%) | Patients with events: Constipation [1, 12]: 0 n (%) | Patients with events: Decreased appetite [1, 12]: 0 n (%) | Patients with events: Diabetes mellitus [1, 12]: 1 (16.7) n (%) | Patients with events: Diarrhoea [1, 12]: 0 n (%) | Patients with events: Fatigue [1, 12]: 0 n (%) | Patients with events: Febrile neutropenia [1, 12]: 1 (16.7) n (%) | Patients with events: GGT increased [1, 12]: 2 (33.3) n (%) | Patients with events: Hypertension [1, 12]: 0 n (%) | Patients with events: Malaise [1, 12]: 0 n (%) | Patients with events: Nausea [1, 12]: 0 n (%) | Patients with events: Platelet count decreased [1, 12]: 1 (16.7) n (%) | Patients with events: Pyelonephritis [1, 12]: 1 (16.7) n (%) | Patients with events: Thrombocytopenia [1, 12]: 1 (16.7) n (%) | Patients with events: Vomiting [1, 12]: 0 n (%) | Patients with events: White blood cell count decreased [1, 12]: 0 n (%) | Patients who discontinued treatment due to a TEAE ([1]; cohort 1, 200 mg/day): no patient | Treatment-related TEAE: decreased appetite ([1]; cohort 1, 200 mg/day): 2 n | Patients with grade 3 treatment-related AEs ([1]; cohort 1, 200 mg/day, blood alkaline phosphatase increased, white blood cell count decreased): one patient | Treatment-related TEAE: decreased appetite ([1]; cohort 1, 200 mg/day, listed as niraparib): 66.7% | Patients with grade ≥ 3 treatment-related AEs ([1]; cohort 2, 300 mg/day): five patients | Patients with treatment-related grade 3 alanine aminotransferase increased ([1]; cohort 2, 300 mg/day): one patient | Patients with treatment-related grade 3 anaemia ([1]; cohort 2, 300 mg/day): two patients | Patients with treatment-related grade 3 febrile neutropenia ([1]; cohort 2, 300 mg/day): one patient | Patients with treatment-related grade 3 gamma-glutamyl transferase increased ([1]; cohort 2, 300 mg/day): one patient | Total number of grade ≥ 3 treatment-related AEs ([1]; cohort 2, 300 mg/day): 11 | Treatment-related TEAE: aspartate aminotransferase increased ([1]; cohort 2, 300 mg/day): 5 n | Treatment-related TEAE: platelet count decreased ([1]; cohort 2, 300 mg/day): 5 n | Patients with dose-limiting toxicity (DLT) in cycle 1 [1]: 16.7% | Patients with dose-limiting toxicity (DLT) in cycle 1 ([1]; grade 4 platelet count decreased): one patient | Treatment-related TEAE: aspartate aminotransferase increased [1, 13]: 83.3% | Treatment-related TEAE: platelet count decreased [1, 13]: 83.3% | Patients who discontinued treatment due to a TEAE ([1]; cohort 2, 300 mg/day, malaise and gamma-glutamyl transferase increased): Two patients | Patients with a serious AE ([1]; cohort 2, 300 mg/day, pyelonephritis, considered unrelated to niraparib): One patient | Treatment-related TEAE: alkaline phosphatase increased [1, 14]: 50.0% | Treatment-related TEAE: anaemia [1, 14]: 50.0% | Treatment-related TEAE: nausea [1, 14]: 50.0% | progression-free survival (PFS) compared with placebo ([2]; maintenance treatment, regardless of germline BRCA mutation status): significantly prolonged | Patients requiring a dosage reduction to 200 mg once daily ([2]; starting dosage 300 mg once daily): ~ 70% | Dose dependence of mean Cmax and AUC0–24 ([3]; 200 and 300 mg/day, after multiple doses): increased dose-proportionally; also recorded: generally increased in a dose-proportional manner | AUC(0-t) ([3]; human, plasma, 200 mg/day): 4930 ng·h/mL | Cmax ([3]; human, plasma, 200 mg/day, plasma, Cycle 1 Day 1, Niraparib 200 mg/day (n = 3)): 443 ng/mL | Cmax ([3]; human, plasma, 200 mg/day, plasma, Cycle 1 Day 21, Niraparib 200 mg/day (n = 3)): 729 ng/mL | AUC(0-t) ([3]; human, plasma, 300 mg/day): 6270 ng·h/mL | Cmax ([3]; human, plasma, 300 mg/day, plasma, Cycle 1 Day 1, Niraparib 300 mg/day (n = 6)): 530 ng/mL | Cmax ([3]; human, plasma, 300 mg/day, plasma, Cycle 1 Day 21, Niraparib 300 mg/day (n = 4)): 1170 ng/mL | Tmax ([3]; human, plasma, po, median tmax, single (cycle 1, day 1) and multiple (cycle 1, day 21) oral administration of niraparib 200 and 300 mg/day): 3 to 4 h | Cmin ([3]; plasma, Cycle 1 Day 21, Niraparib 200 mg/day (n = 3)): 405.8 (267.8) ng/ml | Cmin ([3]; plasma, Cycle 1 Day 21, Niraparib 300 mg/day (n = 4)): 592.3 (138.2) ng/ml | tumour exposure at steady state [4]: high | progression-free survival (PFS) compared with placebo [5]: significantly prolonged | bioavailability after oral administration [6]: ~ 73% | maximum tolerated dose (MTD) [7]: 300 mg once daily | Patients with PD (progressive disease) ([8]; both cohorts): four | Patients with partial response ([8]; both in cohort 2 (300 mg/day), lung cancer and bile duct cancer): Two patients | Patients with PD (progressive disease) ([8]; cohort 1, 200 mg/day): All patients
